# Measurements: patent EP0799188B1, “AMIDES OF MONO AND DICARBOXYLIC ACIDS WITH GLYCOSAMINES, SELECTIVELY ACTIVE ON THE CANNABINOID PERIPHERAL RECEPTOR” (LIFEGROUP S.p.A., priority 1994, dated 1996)
# Values joined by “and” are separate entries in the source; they are usually repeats but may differ in a detail not shown here. Equal values may be shown once. Read-outs that look alike come from different tables or passages of the source.
# How the values were obtained:
# [1] = solubility in organic solvents; assay type: physicochemical; conditions: organic solvent or mixture, read-out: solubility in org. sol.
# RBL-2H3 cells = assay: 3H-serotonin release induced by ADNP/DNP.HSA immunogenic stimulation; assay type: cell-based, rat; conditions: for effect on serotonin release (RBL cells immunogenic activation): statement in words on Table 3; for inhibition at 5 µM: RBL-2H3, read-out: 3H-serotonin net release inhibition (%), 5µM; for inhibition at 12.5 µM: RBL-2H3, 12.5µM, -WIN; for inhibition at 12.5 µM / inhibition at 10 µM: read-out: 3H-serotonin net release inhibition (%); for inhibition at 10 µM: RBL-2H3, 10µM
# CB2 receptor = molecular target: T1, CB2 receptor (Rattus norvegicus, UniProt Q9QZN9); assay: 3H-WIN 55,212-2 binding displacement on RBL-2H3 cell membranes; conditions: for IC50: RBL-2H3 cell membranes, 1% DMSO, means ± SEM
# T1 construct: 30 µg membrane proteins prepared in item a); endogenous in cells; host or cells: RBL-2H3 cells (plasma membrane preparation)
# T1 sequence (Q9QZN9 1-360): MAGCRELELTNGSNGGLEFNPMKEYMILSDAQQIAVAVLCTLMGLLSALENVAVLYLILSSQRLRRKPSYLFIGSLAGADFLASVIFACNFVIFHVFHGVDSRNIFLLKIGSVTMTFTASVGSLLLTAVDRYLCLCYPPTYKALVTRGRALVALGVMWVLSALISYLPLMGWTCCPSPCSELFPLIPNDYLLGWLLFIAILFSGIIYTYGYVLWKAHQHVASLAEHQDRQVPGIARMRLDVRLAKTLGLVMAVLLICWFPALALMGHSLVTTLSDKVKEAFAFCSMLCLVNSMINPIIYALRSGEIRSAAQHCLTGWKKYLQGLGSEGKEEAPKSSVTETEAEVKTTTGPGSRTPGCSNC
# [2] = tested on: cerebellar granule cell culture; assay: neuroprotective effect against glutamate-induced cell death (MTT); assay type: cell-based, mouse; conditions: Mus musculus; glutamate 500 µM for 5 minutes; compound added for 10 minutes, 15 minutes after removing glutamate; MTT after 24 hours; means ± SEM; read-out: EC50
# [3] = Rattus norvegicus, RBL-2H3, DMSO 0.2%
# [4] = Rattus norvegicus, RBL-2H3, DMSO 1%, 100µM
# [5] = Rattus norvegicus, RBL-2H3, concentration inhibiting by 50% the net release of 3H serotonin, 1% DMSO, 15 minutes release period, means ± SEM, read-out: EC50
# [6] = 100µM, 0.1% DMSO and 0.1% ethanol
# [7] = competitor 10 µM, amides in 0.1% DMSO, Anandamide and Nabilone in 0.1% ethanol
# [8] = 10µM, 0.1% DMSO and 0.1% ethanol
# [9] = Rattus norvegicus, + anandamide (12.5 µM)
# [10] = Rattus norvegicus, RBL-2H3, inhibition of 3H-serotonin release, +anandamide (12.5 µM), read-out: ED50 (the source's name)
# [11] = Rattus norvegicus, RBL-2H3, inhibition of 3H-serotonin release, -anandamide, read-out: ED50 (the source's name)
# [12] = Rattus norvegicus, RBL-2H3, concentration inhibiting by 50% the net release of 3H serotonin, 0.2% DMSO, 15 minutes release period, means ± SEM, read-out: EC50
smiles,measurement,setting,value
"CCCCCCCCCCCCCCCC(=O)N[C@@H](CS)C(=O)O [Example 6, N-palmitoyl-L-cysteine]",solubility,[1]; in DMSO,> 10000 µg/mL
same,water solubility,water solubility,slightly soluble
same,inhibition at 60 µM,RBL-2H3 cells; [3],50%
same,inhibition at 100 µM,RBL-2H3 cells; [4],91%
same,EC50,RBL-2H3 cells; [5],29 ± 12 µM
"CCCCC/C=C\C/C=C\CCCCCCCC(=O)NCCO [N-(2-hydroxyethyl)-linoleylamide, reference compound]",3H-serotonin net release (%),RBL-2H3 cells; [6],100%
"CCCCCCCCCCCCCCCC(=O)N[C@@H](CO)C(=O)O [Example 1, N-palmitoyl-L-serine]",solubility,[1]; in DMSO,> 10000 µg/mL
same,solubility,[1]; in ethanol,> 10000 µg/mL
same,IC50,CB2 receptor; read-out: IC50,0.04 nM and 0.05 nM
same,Displacement (%),CB2 receptor; [7],100%
same,water solubility,water solubility,slightly soluble
same,3H-serotonin net release (%),RBL-2H3 cells; [6],0%
same,effect on serotonin release (RBL cells immunogenic activation),RBL-2H3 cells,can inhibit the effects induced by mast cell activation
"CCCCCCC(C)(C)c1cc(O)c2c(c1)OC(C)(C)C1CCC(=O)CC21 (stereo not drawn) [Nabilone, 3-(1,1-dimethylheptyl)-6,6a,7,8,10,10a-hexahydro-1-hydroxy-6,6-dimethyl-9H-dibenzo-[b,d]-pyran-9-one, reference compound]",EC50,[2],3.9 ± 1.1 µM
same,IC50,CB2 receptor; IC50 (nM),2.6 ± 1.4 nM
same,Displacement (%),CB2 receptor; [7],100%
same,3H-serotonin net release (%),RBL-2H3 cells; [8],0%
same,inhibition at 5 µM,RBL-2H3 cells; [9],50%
same,inhibition at 5 µM,"RBL-2H3 cells; Rattus norvegicus, -anandamide",90%
same,EC50,"RBL-2H3 cells; Rattus norvegicus, RBL-2H3, read-out: ED50 (µM), inhibition of 3H-serotonin release, +anandamide (12.5 µM)",5 µM
same,EC50,"RBL-2H3 cells; Rattus norvegicus, RBL-2H3, read-out: ED50 (µM), inhibition of 3H-serotonin release, -anandamide",2.8 µM
same,EC50,"RBL-2H3 cells; Rattus norvegicus, RBL-2H3, read-out: ED50 (µm), inhibition of serotonin release, 0.1% DMSO and 0.1% ethanol",2.8 µM
same,effect on serotonin release (RBL cells immunogenic activation),RBL-2H3 cells,"able to inhibit, in a concentration-dependent way"
"NCCO [ethanolamine, reference compound]",inhibition at 12.5 µM,RBL-2H3 cells; Rattus norvegicus,6%
"CCCCCc1cc(O)c2c(c1)OC(C)(C)C1CC=C(C)CC21 (stereo not drawn) [Δ 8-THC, Δ8-tetrahydrocannabinol, reference compound]",inhibition at 25 µM,"RBL-2H3 cells; Rattus norvegicus, RBL-2H3, read-out: 3H-serotonin net release inhibition (%)",100%
same,EC50,"RBL-2H3 cells; Rattus norvegicus, RBL-2H3, read-out: ED50 (µM)",5 µM
same,EC50,"RBL-2H3 cells; Rattus norvegicus, RBL-2H3, read-out: ED50 (µm)",5 µM
same,effect on serotonin release (RBL cells immunogenic activation),RBL-2H3 cells,"able to inhibit, in a concentration-dependent way"
"CCCCC/C=C\C/C=C\C/C=C\C/C=C\CCCC(=O)O [arachidonic acid, reference compound]",inhibition at 12.5 µM,RBL-2H3 cells; Rattus norvegicus,4%
"CCCCCCCCCCCCCCCC(=O)NCC(=O)O [Example 7, N-palmitoyl-glycine]",solubility,[1]; in DMSO,> 10000 µg/mL
same,Displacement (%),CB2 receptor; [7],79%
same,Specific binding,CB2 receptor; [7],297
same,water solubility,water solubility,slightly soluble
same,3H-serotonin net release (%),RBL-2H3 cells; [8],27%
same,inhibition at 10 µM,RBL-2H3 cells; [9],24%
same,inhibition at 10 µM,"RBL-2H3 cells; Rattus norvegicus, -anandamide",73%
same,inhibition at 60 µM,RBL-2H3 cells; [3],85%
same,inhibition at 100 µM,RBL-2H3 cells; [4],100%
same,EC50,RBL-2H3 cells; [10],> 100 µM
same,EC50,RBL-2H3 cells; [11],4.8 µM
same,EC50,"RBL-2H3 cells; Rattus norvegicus, RBL-2H3, inhibition of serotonin release, 0.1% DMSO and 0.1% ethanol, read-out: ED50 (µm)",4.8 µM
same,effect on serotonin release (RBL cells immunogenic activation),RBL-2H3 cells,can inhibit the effects induced by mast cell activation
"CCCCCCCCCCCCCCCC(=O)NCCCC(=O)O [Example 11, N-palmitoyl-gamma-aminobutyric acid]",solubility,[1]; in DMSO,> 5000 µg/mL
same,solubility,[1]; in ethanol,> 5000 µg/mL
same,water solubility,water solubility,slightly soluble
same,EC50,RBL-2H3 cells; [12],26 ± 18 µM
"CCCCCCCCCCCC(=O)N[C@@H](CO)C(=O)OC [Example 5, N-lauroyl-L-serine methylester]",solubility,[1]; in DMSO,> 10000 µg/mL
same,solubility,[1]; in ethanol,> 10000 µg/mL
same,water solubility,water solubility,slightly soluble
same,inhibition at 100 µM,RBL-2H3 cells; [4],61%
same,EC50,RBL-2H3 cells; [12],104 ± 59 µM
"CCCCCCCCCCCC(=O)NCC(=O)O [Example 8, N-lauroyl-glycine]",solubility,[1]; in DMSO,> 10000 µg/mL
same,solubility,[1]; in ethanol,> 10000 µg/mL
same,water solubility,water solubility,slightly soluble
same,solubility,"water solubility; phosphate buffer, pH 7.4, aqueous buffer",> 10000 µg/mL
same,inhibition at 100 µM,"RBL-2H3 cells; Rattus norvegicus, RBL-2H3, DMSO 0.2%, 100µM",93%
same,inhibition at 100 µM,RBL-2H3 cells; [4],100%
same,EC50,RBL-2H3 cells; [12],10 ± 1.5 µM
same,EC50,RBL-2H3 cells; [5],7 ± 5 µM
"CCCCCCCCCCCCCCCC(=O)N[C@H]1C(O)O[C@H](CO)[C@@H](O)[C@@H]1O (stereo partly drawn) [Example 14, N-palmitoyl-D-glucosamine]",solubility,[1]; in DMSO,> 1000 µg/mL
same,water solubility,water solubility,slightly soluble
same,inhibition at 20 µM,"RBL-2H3 cells; Rattus norvegicus, RBL-2H3, DMSO 0.2%, 20µM",76%
same,inhibition at 100 µM,RBL-2H3 cells; [4],91%
same,EC50,RBL-2H3 cells; [12],1.28 ± 0.38 µM
same,EC50,RBL-2H3 cells; [10],3.3 µM
same,EC50,RBL-2H3 cells; [11],0.51 µM
